According to ChEMBL document CHEMBL1124213, “Structure-activity relationships among benextramine-related tetraamine disulfides. Chain length effect on alpha-adrenoreceptor blocking activity” (J Med Chem, 1988):

How the values were obtained:
[1] = Inhibition of epinephrine induced human blood platelet aggregation; assay type: functional
Rattus norvegicus [2] = species: Rattus norvegicus; assay: Alpha-1-adrenoceptor blocking activity by antagonism of (-)-norepinephrine induced contractions of epididymal portion of rat vas deferens; assay type: functional
[3] = target: T1, Adrenergic receptor alpha-2 (Rattus norvegicus, UniProt P22086+P19328+P22909); assay: Alpha-2 adrenergic receptor blocking activity by antagonism of clonidine induced depression of twitch response of field stimulated prostatic portion of rat vas deferens; assay type: functional, tissue-based
T1 sequence (P22086 whole entry): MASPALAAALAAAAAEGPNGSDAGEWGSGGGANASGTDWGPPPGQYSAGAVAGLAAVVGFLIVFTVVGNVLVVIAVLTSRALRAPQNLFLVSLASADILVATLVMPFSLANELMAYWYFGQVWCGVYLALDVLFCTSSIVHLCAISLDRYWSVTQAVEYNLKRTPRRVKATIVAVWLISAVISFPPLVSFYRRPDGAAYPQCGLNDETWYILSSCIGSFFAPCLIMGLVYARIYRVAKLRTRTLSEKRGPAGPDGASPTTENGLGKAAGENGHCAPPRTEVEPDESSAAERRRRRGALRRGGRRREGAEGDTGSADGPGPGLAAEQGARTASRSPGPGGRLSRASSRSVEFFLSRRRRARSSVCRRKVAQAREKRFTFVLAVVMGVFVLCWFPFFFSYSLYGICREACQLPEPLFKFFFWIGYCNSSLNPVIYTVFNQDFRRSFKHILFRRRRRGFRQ
T1 sequence (P19328 whole entry): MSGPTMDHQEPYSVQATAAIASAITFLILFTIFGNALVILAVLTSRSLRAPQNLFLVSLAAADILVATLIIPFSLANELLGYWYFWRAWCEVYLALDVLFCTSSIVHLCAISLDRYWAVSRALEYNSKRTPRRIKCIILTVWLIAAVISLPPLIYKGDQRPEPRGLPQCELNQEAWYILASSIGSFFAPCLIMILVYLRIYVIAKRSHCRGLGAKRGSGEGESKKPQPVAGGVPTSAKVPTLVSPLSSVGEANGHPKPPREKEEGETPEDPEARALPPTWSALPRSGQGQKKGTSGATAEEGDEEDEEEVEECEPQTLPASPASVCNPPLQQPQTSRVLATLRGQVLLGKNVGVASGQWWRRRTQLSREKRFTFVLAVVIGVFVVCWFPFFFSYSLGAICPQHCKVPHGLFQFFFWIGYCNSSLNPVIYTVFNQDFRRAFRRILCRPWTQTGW
T1 sequence (P22909 whole entry): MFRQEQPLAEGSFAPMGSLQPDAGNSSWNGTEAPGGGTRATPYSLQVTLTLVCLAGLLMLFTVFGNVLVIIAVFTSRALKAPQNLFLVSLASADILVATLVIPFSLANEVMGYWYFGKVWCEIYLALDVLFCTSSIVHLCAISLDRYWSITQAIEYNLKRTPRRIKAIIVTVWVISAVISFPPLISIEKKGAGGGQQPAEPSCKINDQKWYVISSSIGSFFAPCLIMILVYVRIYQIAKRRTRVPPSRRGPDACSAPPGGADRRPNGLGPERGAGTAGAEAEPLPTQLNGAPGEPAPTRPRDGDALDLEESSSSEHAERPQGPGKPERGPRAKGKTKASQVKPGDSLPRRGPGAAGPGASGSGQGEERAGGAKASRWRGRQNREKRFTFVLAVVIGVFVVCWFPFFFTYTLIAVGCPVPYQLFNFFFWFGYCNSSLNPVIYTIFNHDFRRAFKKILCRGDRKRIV

[4] = target: Adrenergic receptor alpha (Rattus norvegicus) (UniProt P15823+P23944+P43140+P22086+P19328+P22909); assay: Ratio of IC50 towards alpha1 to alpha-2 receptors of rat vas deferens; assay type: protein assay
[5] = Inhibition of ADP induced human blood platelet aggregation; assay type: functional
Rattus norvegicus [6] = species: Rattus norvegicus; assay: Alpha-1-adrenoceptor blocking activity by antagonism of (-)-norepinephrine induced contractions of epididymal portion of rat vas deferens; Inactive up to a concentration of 20 uM; assay type: functional

COc1ccccc1CNCCCCCCCNCCSSCCNCCCCCCCNCc1ccccc1OC
IC50 [1]: 20.6 µM
IC50 (Rattus norvegicus [2]): 55.2 µM
IC50 [3]: 1.04 µM
Selectivity [4]: 53.1
IC50 [5]: 41.3 µM

COc1ccccc1CNCCCCCCCCCCNCCSSCCNCCCCCCCCCCNCc1ccccc1OC
IC50 [1]: 2.2 µM
IC50 (Rattus norvegicus [2]): 62.8 µM
Selectivity [4]: < 3.14
IC50 [5]: 2.8 µM

COc1ccccc1CNCCCCCCCCNCCSSCCNCCCCCCCCNCc1ccccc1OC
IC50 [1]: 5.4 µM
IC50 (Rattus norvegicus [2]): 98.5 µM
IC50 [3]: 1.22 µM
Selectivity [4]: 80.7
IC50 [5]: 22.7 µM

COc1ccccc1CNCCC(=O)NCCCCCCCCNCCSSCCNCCCCCCCCNC(=O)CCNCc1ccccc1OC
IC50 (Rattus norvegicus [6]): Not Active

COc1ccccc1CNCCCCCCNCCCCCCNCCSSCCNCCCCCCNCCCCCCNCc1ccccc1OC.Cl.O
IC50 (Rattus norvegicus [6]): Not Active

C1=CC(CNCCCCCCCCCCCCNCCSSCCNCCCCCCCCCCCCNCC2C=CC=N2)N=C1 (stereo unspecified)
IC50 (Rattus norvegicus [2]): 7.3 µM
Selectivity [4]: < 0.37

COc1ccccc1CNCCCCCCCCCCCCN(C)CCSSCCN(C)CCCCCCCCCCCCNCc1ccccc1OC
IC50 (Rattus norvegicus [2]): 46.9 µM
Selectivity [4]: < 2.35

COc1ccccc1CNCCCCCC(=O)NCCCCCCNCCSSCCNCCCCCCNC(=O)CCCCCNCc1ccccc1OC
IC50 (Rattus norvegicus [6]): Not Active

COc1ccccc1CNCCCNCCCCCCCCNCCSSCCNCCCCCCCCNCCCNCc1ccccc1OC.Cl.O
IC50 (Rattus norvegicus [6]): Not Active

COc1ccccc1CNCCCCCCCCCNCCSSCCNCCCCCCCCCNCc1ccccc1OC
IC50 [1]: 2.3 µM
IC50 (Rattus norvegicus [2]): 68 µM
Selectivity [4]: < 3.4
IC50 [5]: 6 µM

COc1ccccc1CNCCCCCCCCCCCCNCCSSCCNCCCCCCCCCCCCNCc1ccccc1OC
IC50 [1]: 1.7 µM
IC50 (Rattus norvegicus [2]): 8.23 µM
Selectivity [4]: < 0.41
IC50 [5]: 2.1 µM

COc1ccccc1CNCCCCCNCCSSCCNCCCCCNCc1ccccc1OC
IC50 [1]: 46 µM
IC50 (Rattus norvegicus [2]): 55.8 µM
IC50 [3]: 25.8 µM
Selectivity [4]: 2.16
IC50 [5]: 87 µM

COc1ccccc1CNCCCCCCCCCCCNCCSSCCNCCCCCCCCCCCNCc1ccccc1OC
IC50 [1]: 1.7 µM
IC50 (Rattus norvegicus [2]): 51.3 µM
Selectivity [4]: < 2.57
IC50 [5]: 2.1 µM

Nc1ncnc2c1ncn2[C@@H]1O[C@H](CO)[C@@H](O)[C@H]1O [ADENOSINE]
IC50 [1]: 1.8 µM
IC50 [5]: 2.5 µM

COc1ccccc1CNCCCCCCNCCSSCCNCCCCCCNCc1ccccc1OC [BENEXTRAMINE]
IC50 [1]: 31.3 µM
IC50 (Rattus norvegicus [2]): 7.55 µM
IC50 [3]: 0.82 µM
Selectivity [4]: 9.2
IC50 [5]: 97 µM
